Measurements taken from patent US5849587A, “Method of inhibiting viral replication in eukaryotic cells and of inducing apoptosis of virally-infected cells” (Cornell Research Foundation, Inc., priority 1995, dated 1998).
Entries after “also recorded” stand apart in the source; their conditions may differ.

Legend:
[1] = biological target: T1, deoxyhypusyl hydroxylase (DOHH) in human T-cell line ACH-2 (Homo sapiens, UniProt Q9BU89); experiment: Deoxyhypusine-to-hypusine conversion by DOHH in ACH-2 cells; assay type: cell-based; conditions: for activity at 200 µM: ACH-2, 22 h, 22 hours, ACH-2 cells, FIG. 5, remaining conversion; for resumption of conversion after inhibitor removal: within 2 hours of inhibitor removal, after 200 μM, ACH-2
T1 construct: endogenous in cells; host or cells: ACH-2 (human T-cell line, subclone of the A3.01 variant of CEM)
T1 sequence (Q9BU89 1-302): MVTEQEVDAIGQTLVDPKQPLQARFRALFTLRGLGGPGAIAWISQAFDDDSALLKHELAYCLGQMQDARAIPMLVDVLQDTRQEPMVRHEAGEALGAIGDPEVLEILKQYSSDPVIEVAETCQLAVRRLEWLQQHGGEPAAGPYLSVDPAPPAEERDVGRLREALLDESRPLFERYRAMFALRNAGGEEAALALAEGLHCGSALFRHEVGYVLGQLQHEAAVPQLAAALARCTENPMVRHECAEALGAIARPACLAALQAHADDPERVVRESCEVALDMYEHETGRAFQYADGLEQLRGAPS
Procedure: DOHH Assay. The intracellular conversion of peptide-bound deoxyhypusine to peptidyl hypusine was determined after preincubation of human T lymphocyte-derived cells (i.e. ACH-2) [Clouse et al., J. Immunol. 142, 431-438 (1989), which is hereby incorporated by reference] with the hypusine inhibitors mimosine and HK-1 for 60 minutes, followed by labeling for 21 hours with ^3 H-spermidine (3.75 μCi/ml) in wells containing 3×10^6 cells suspended in 8 ml of serum-supplemented and antibiotic-containing RPMI 1640 medium. Cells were then split into two groups, one of them being harvested immediately to assess degree of DOHH inhibition, and the other harvested after transfer of the cells into inhibitor-free medium for 2 hours to measure resumption of DOHH activity. Harvesting consisted in precipitation of washed cells with 10% TCA containing 1 mM each of putrescine, spermidine, and spermine. Cellular proteins from each sample were then hydrolyzed in 6N HCl at 110° C. for 16 hours. The hydrolysate was analyzed for labeled amino acids on an amino acid analyzer by published methods [Park et al., J. Biol. Chem., 257, 7217-7222 (1982), which is hereby incorporated by reference]. The retention times of hypusine and deoxyhypusine were determined from standards. Similar studies were performed in human B-cells and human smooth muscle cells.

[2] = tested on: HIV-1 infected ACH-2 cells; experiment: Flow cytometry of genomic DNA 3'-ends (apoptosis), HIV-1 infected cells; assay type: cell-based, human; conditions: for fragmentation of genomic DNA / number of DNA 3'-ends, ACH-2: FIG. 13
Procedure: (§1) FIGS. 13A-F show the flowcytometrically determined distribution of the number of fluorescently labeled 3'-ends in the genomic DNA of HIV-1 producing ACH-2 cells ("ACH-2") and their uninfected parent cell line CEM ("CEM"), both receiving no treatment ("NT") or treatment for 18 hours with either 200 μM mimosine ("MIM") or 200 μM HK-1 ("HK1"). […] This is the hallmark of irreversible auto-destruction of a cell's genetic library.
(§2) FIGS. 14A-H show the flowcytometrically determined distribution of the number of fluorescently labeled 3'-ends in the genomic DNA of HIV-1 producing ACH-2 cells ("ACH-2") and of their uninfected parent cell line CEM ("CEM"), both receiving no treatment ("NT") or treatment for 18 hours with 200 μM mimosine ("MIM"), followed by inhibitor withdrawal and reincubation in fresh medium for 2 hours.
(§3) ACH-2 cells were incubated with hypusine inhibitors (mimosine, HK-1) and induced with PMA as outlined in Example II A, except that the duration of exposure to inhibitor was extended to 18-21 hours and that cells were labeled as detailed in Example I B. Half of the cells were then harvested and processed for detection of apoptosis, while the other half was washed free of inhibitors and re-incubated in fresh medium for 2-4 hours, followed by harvesting and processing for detection of […] apoptosis. Using the same protocol, cultures of the parent CEM cell line were incubated in parallel. For assessment of apoptosis, cell viability was measured by exclusion of the dye trypan blue, by retention of the ^3 H-spermidine-derived intracellular radioactivity incorporated into the obligatory intracellular protein eIF-5A, and by direct fluorescence detection of the intemucleosomal degradation of genomic DNA. Such irreversible genome degradation signals the activation of pre-programmed suicide mechanisms within any cell, which is the hallmark of apoptosis, and inescapably results in cell death [Compton, Cancer Metast. 11, 105-119 (1992), which is hereby incorporated by reference]. For the latter method, a commercially available kit was used (Oncor, Gaithersburg, Md.). Flow cytometric analysis of apoptotic cells was performed in accord with standard procedures.

[3] = tested on: uninfected parent cell line CEM; experiment: Flow cytometry of genomic DNA 3'-ends (apoptosis), uninfected parent cells; assay type: cell-based, human; conditions: for genomic DNA 3'-ends, CEM: 200 μM, 18 hours, FIG. 13
Procedure: as §1, §2
as §3, with “Flow cytometric analysis of apoptotic cells was performed in accord with standard procedures.” left out

Row | Structure (SMILES) | activity at 200 µM [1] | resumption of conversion after inhibitor removal [1] | fragmentation of genomic DNA / number of DNA 3'-ends, ACH-2 ([2]; 200 μM, 18 hours) | genomic DNA 3'-ends, CEM [3] | DNA fragmentation after withdrawal, ACH-2 ([2]; 200 μM 18 hours, then 2 hours after withdrawal, FIG. 14) | second population (higher amount of 3'-ends) position, ACH-2 ([2]; 200 μM, 18 hours, FIG. 14) | average fluorescence peak position, ACH-2 ([2]; 200 μM, 18 hours, FIG. 14, control around channel 100) | average fluorescence peak after incubation and withdrawal, CEM ([3]; 200 μM 18 hours, then 2 hours withdrawal, FIG. 14)
1 | Cc1c(O)c(=O)ccn1C [HK-1, 1,2-dimethyl-3-hydroxypyrid-4-one] | ≤ 10% | almost tripled; also recorded: recovers readily and triples within the first 2 hours of inhibitor removal | triggered fragmentation of the genomic DNA; also recorded: increase of the number of 3'-ends in their DNA | did not affect the position of this peak in uninfected CEM cells; also recorded: Only the virally-infected ACH-2, but not the parent CEM cells reacted to the inhibitors | – | – | – | –
2 | N[C@@H](Cn1ccc(=O)c(O)c1)C(=O)O [L-Mimosine] | ≤ 10% | almost tripled; also recorded: recovers readily and triples within the first 2 hours of inhibitor removal | triggered fragmentation of the genomic DNA; also recorded: increase of the number of 3'-ends in their DNA | did not affect the position of this peak in uninfected CEM cells; also recorded: Only the virally-infected ACH-2, but not the parent CEM cells reacted to the inhibitors | this population did not decrease, but rather became the predominant one; also recorded: Within the 2 hours of release, this shift increased markedly | ~210 channel | 140 channel | the position and shape of the average fluorescence peak in CEM cells did not change; also recorded: Only the virally infected ACH-2, but not the parent CEM cells reacted to the inhibitor
